Measured values reported in publication PMC11758221, “Late-Stage Minimal Labeling of Peptides and Proteins for Real-Time Imaging of Cellular Trafficking” (ACS Central Science, 2024).
Like-named read-outs stand apart in the source and are kept apart here. Each block holds one molecule with its values, some of them ahead of it. Where a SMILES comes first, the peptide text is derived from it. Where no end group is shown, it is not given here. The star is where a group is joined. X1 = O=[N+]([O-])c1ccc(*)c2nsnc12

Experiments:
[1] = test system: Human red blood cells; assay: Haemolysis assay; assay type: cell-based
Description: H aemolysis assays. […] H u man red bl ood cel l s w ere separated f rom seru m an d w ash ed i n ph osph ate- bu ff ered sal i n e (P B S , pH 7.4) with 4–5 ti mes cen tri f u gati on at 4000 rpm f o r 1 mi n . E ryth rocytes w ere th en resu spended in PBS as a 0.5% (v/v) sol u ti on , an d co- i n cu bated w i th seri al l y di l u ted pepti des i n a 96-w el l pl ate f o r 1 h at 37 °C . […] PBS and […]
0 .0 1 % (v /v ) Tri to n X-100 w ere u sed as con trol s to establ i sh 0% an d 100% of h aemol ysis, respecti vel y. […]

[2] = test system: RAW264.7 macrophages expressing the chemokine receptor CCR2; assay: Confocal imaging of receptor-mediated endocytosis of the labeled chemokine; assay type: cell-based, mouse; details: RAW264.7 cells, 4 μM, 1 h
Excerpt: Figure 6 Site-selective mCCL2 chemokine labeling and real-time imaging of receptor-mediated endocytosis in live macrophages. A) Schematic representation of the chemokine mCCL2 (PDB: 1DOK) depicting the incorporation of SNBD at the C-terminal end. B) Coomassie-stained and in-gel fluorescence scanning of unlabeled mCCL2, mCCL2-SNBD, and the Pd-SNBD complex. C) Mass spectrometry analysis of unlabeled mCCL2 and mCCL2-SNBD proteins. D) Representative fluorescence confocal microscopy images of RAW264.7 cells after incubation with mCCL2-SNBD for 1 h. Left panel: untreated cells; middle panel: cells treated with mCCL2-SNBD (4 μM); right panel: cells treated with mCCL2-SNBD (4 μM) and the CCR2 antagonist RS102895 (40 μM) (exc/em: 405/515 nm). Insets show the corresponding brightfield images. Scale bars: 25 μm. […]
Next, we acquired fluorescence microscopy images in live RAW264.7 macrophages as a murine macrophage cell line expressing the chemokine receptor CCR2.[64] We incubated the macrophages with mCCL2-SNBD, and fluorescence images were taken after 1 hour without any washing steps. […]
[…] Th e si gn al s w ere recorded as mi l l i degrees at 25 °C , an d th e mean resi du e el l i pti ci ty (MR E ) w as cal cu l ated accordi n g to [θ] […]

[3] = Chemical stability in PBS, cell culture media and reducing environments; assay type: physicochemical
Description: Next, we investigated the optical properties and stability of the S-aryl linkage in the two labeled peptides P1-SNBD and cP1-SNBD. We examined their chemical stability after incubation in phosphate buffered saline (PBS, pH 7.0) at 25 °C and cell culture media at 37 °C (Figures S6 and S7) as well as different biologically relevant reducing environments (Figure S8). […] Finally, we measured the emission spectra of P1-SNBD and cP1-SNBD and confirmed that the two peptides retained the fluorogenic behavior of benzodiazoles (Figure S9).

[4] = Stability of labeled peptide with reducing bioanalytes (HPLC); assay type: physicochemical; details: peptide 250 µM in PBS pH 7.8, 37 °C
Description: 5 mM gl u tath i on e >95% >95% >95%
Figure S8. Stability analysis of P1-SNBD under physiological conditions. […]

[5] = human red blood cells 0.5% (v/v) in PBS pH 7.4, 1 h at 37 °C, haemoglobin absorbance 405 nm, 0.01% Triton X-100 = 100%, Hill fit with maximum constrained to 100%, read-out: hemolytic activity EC50
[6] = red cells of human, 1 h, pH 7.4

Molecule: N=C(N)NCCC[C@H](NC(=O)CNC(=O)[C@@H](N)Cc1ccc(O)cc1)C(=O)N[C@@H](CCCCN)C(=O)N[C@@H](CCCCN)C(=O)N[C@@H](CCCNC(=N)N)C(=O)N[C@@H](CCCNC(=N)N)C(=O)N[C@@H](CCC(N)=O)C(=O)N[C@@H](CCCNC(=N)N)C(=O)N[C@@H](CCCNC(=N)N)C(=O)N[C@@H](CCCNC(=N)N)C(=O)N1CCC[C@H]1C(=O)N[C@@H](CCC(N)=O)C(=O)N[C@@H](CSc1ccc([N+](=O)[O-])c2nsnc12)C(N)=O [TAT-SNBD]
- EC50 [1, 5]: 53 ± 2 µM

Molecule: mCCL2-SNBD: mCCL2 labeled with SNBD at the C-terminal Cys, 9063.6 Da
- internalization in presence of CCR2 antagonist ([2]; RS102895 40 μM pre-incubated 15 min): substantially reduced intracellular fluorescence emission
- internalization in live macrophages ([2]; no washing steps): bright fluorescence signals distributed across the cytosol

Molecule: CC[C@H](C)[C@H](NC(=O)[C@H](CCCCN)NC(=O)[C@@H](NC(=O)[C@H](CCC(N)=O)NC(=O)[C@@H](N)CCCNC(=N)N)[C@@H](C)CC)C(=O)N[C@@H](Cc1c[nH]c2ccccc12)C(=O)N[C@@H](Cc1ccccc1)C(=O)N[C@@H](CCC(N)=O)C(=O)N[C@@H](CC(N)=O)C(=O)N[C@@H](CCCNC(=N)N)C(=O)N[C@@H](CCCNC(=N)N)C(=O)N[C@@H](CCSC)C(=O)N[C@@H](CCCCN)C(=O)N[C@@H](Cc1c[nH]c2ccccc12)C(=O)N[C@@H](CCCCN)C(=O)N[C@@H](CCCCN)C(=O)N[C@@H](CSc1ccc([N+](=O)[O-])c2nsnc12)C(N)=O [penetratin-SNBD]
- EC50 [1, 6]: 27 ± 3 µM

Molecule: N=C(N)NCCC[C@H](NC(=O)CNC(=O)[C@@H](N)Cc1ccc(O)cc1)C(=O)N[C@@H](CCCCN)C(=O)N[C@@H](CCCCN)C(=O)N[C@@H](CCCNC(=N)N)C(=O)N[C@@H](CCCNC(=N)N)C(=O)N[C@@H](CCC(N)=O)C(=O)N[C@@H](CCCNC(=N)N)C(=O)N[C@@H](CCCNC(=N)N)C(=O)N[C@@H](CCCNC(=N)N)C(=O)N1CCC[C@H]1C(=O)N[C@@H](CCC(N)=O)C(N)=O [TAT, reference compound]
- EC50 [1, 5]: 79 ± 6 µM

Molecule: GLRKRLRKFRNKIKEK-NH2 [sC18, reference compound]
- EC50 [1, 5]: 70 ± 4 µM

Molecule: CC[C@H](C)[C@H](NC(=O)[C@H](CCCCN)NC(=O)[C@@H](NC(=O)[C@H](CCC(N)=O)NC(=O)[C@@H](N)CCCNC(=N)N)[C@@H](C)CC)C(=O)N[C@@H](Cc1c[nH]c2ccccc12)C(=O)N[C@@H](Cc1ccccc1)C(=O)N[C@@H](CCC(N)=O)C(=O)N[C@@H](CC(N)=O)C(=O)N[C@@H](CCCNC(=N)N)C(=O)N[C@@H](CCCNC(=N)N)C(=O)N[C@@H](CCSC)C(=O)N[C@@H](CCCCN)C(=O)N[C@@H](Cc1c[nH]c2ccccc12)C(=O)N[C@@H](CCCCN)C(=O)N[C@@H](CCCCN)C(N)=O [penetratin, reference compound]
- EC50 [1, 5]: 34 ± 5 µM

- chemical stability ([3]; cell culture media at 37 °C): no major degradation
- chemical stability ([3]; different biologically relevant reducing environments): no major degradation
- chemical stability ([3]; phosphate buffered saline (PBS, pH 7.0) at 25 °C): no major degradation
- Peptide stability, percentage relative to peptide without bioanalyte ([4]; 1 mM NADH, 3 h): > 95%
- Peptide stability, percentage relative to peptide without bioanalyte ([4]; 1 mM NADH, 24 h): > 95%
- Peptide stability, percentage relative to peptide without bioanalyte ([4]; 1 mM NADH, 48 h): > 95%
- Peptide stability, percentage relative to peptide without bioanalyte ([4]; 5 mM glutathione, 3 h): > 95%
- Peptide stability, percentage relative to peptide without bioanalyte ([4]; 5 mM glutathione, 24 h): > 95%
- Peptide stability, percentage relative to peptide without bioanalyte ([4]; 5 mM glutathione, 48 h): > 95%
Molecule: CC(C)C[C@H](NC(=O)[C@H](Cc1ccc(O)cc1)NC(=O)[C@H](CCCNC(=N)N)NC(=O)[C@H](CO)NC(=O)[C@H](CSc1ccc([N+](=O)[O-])c2nsnc12)NC(=O)[C@H](C)NC(=O)[C@H](Cc1ccc(O)cc1)NC(=O)[C@H](CC(C)C)NC(=O)[C@@H](N)CCCCN)C(N)=O [P1-SNBD] (H-KLYAC(X1)SRYL-NH2)

Molecule: CC[C@H](C)[C@H](NC(=O)[C@H](CCCCN)NC(=O)[C@H](CC(N)=O)NC(=O)[C@H](CCCNC(=N)N)NC(=O)[C@H](Cc1ccccc1)NC(=O)[C@H](CCCCN)NC(=O)[C@H](CCCNC(=N)N)NC(=O)[C@H](CC(C)C)NC(=O)[C@H](CCCNC(=N)N)NC(=O)[C@H](CCCCN)NC(=O)[C@H](CCCNC(=N)N)NC(=O)[C@H](CC(C)C)NC(=O)CN)C(=O)N[C@@H](CCCCN)C(=O)N[C@@H](CCC(=O)O)C(=O)N[C@@H](CCCCN)C(=O)N[C@@H](CSc1ccc([N+](=O)[O-])c2nsnc12)C(N)=O [sC18-SNBD] (H-GLRKRLRKFRNKIKEKC(X1)-NH2)
- EC50 [1, 6]: 43 ± 3 µM
